According to paper PMC4873967, “ISPD produces CDP-ribitol used by FKTN and FKRP to transfer ribitol phosphate onto α-dystroglycan” (Nature Communications, 2016):

Assays:
Assay type in all cases: biochemical
ISPD (mouse Ispd) = target: T1, ISPD (mouse Ispd) (Mus musculus, UniProt Q5RJG7); assay: HPLC (strong anion exchange) of CDP-ribitol formed; details: 1 mM CTP
T1 construct: gene Crppa
T1 sequence (Q5RJG7 1-447): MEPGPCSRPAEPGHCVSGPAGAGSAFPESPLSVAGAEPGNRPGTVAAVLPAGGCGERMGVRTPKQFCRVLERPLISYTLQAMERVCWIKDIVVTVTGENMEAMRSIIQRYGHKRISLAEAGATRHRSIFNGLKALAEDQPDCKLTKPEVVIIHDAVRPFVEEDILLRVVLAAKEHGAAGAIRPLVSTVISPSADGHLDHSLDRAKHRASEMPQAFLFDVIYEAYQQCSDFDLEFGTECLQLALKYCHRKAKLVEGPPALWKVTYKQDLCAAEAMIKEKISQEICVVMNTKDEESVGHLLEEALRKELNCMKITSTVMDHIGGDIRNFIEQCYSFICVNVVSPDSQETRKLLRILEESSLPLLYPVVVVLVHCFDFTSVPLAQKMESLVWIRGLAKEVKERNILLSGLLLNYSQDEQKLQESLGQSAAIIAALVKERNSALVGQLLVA

[1] = target: T2, FKRP (fukutin-related protein) (Mus musculus, UniProt Q8CG64); assay: transfer of radiolabel to alpha-dystroglycan (scintillation counting; SDS-PAGE phosphorimaging); details: labelled compound; acceptor rabbit alpha-dystroglycan fragments; 2 mM MnCl2, pH 6.5, 30 °C, 16 h
T2 construct: full ORF from mouse thymus cDNA, C-terminal SFB tag (S-tag, two FLAG, SBP), HEK293 lysate, streptavidin beads
T2 sequence (Q8CG64 1-494): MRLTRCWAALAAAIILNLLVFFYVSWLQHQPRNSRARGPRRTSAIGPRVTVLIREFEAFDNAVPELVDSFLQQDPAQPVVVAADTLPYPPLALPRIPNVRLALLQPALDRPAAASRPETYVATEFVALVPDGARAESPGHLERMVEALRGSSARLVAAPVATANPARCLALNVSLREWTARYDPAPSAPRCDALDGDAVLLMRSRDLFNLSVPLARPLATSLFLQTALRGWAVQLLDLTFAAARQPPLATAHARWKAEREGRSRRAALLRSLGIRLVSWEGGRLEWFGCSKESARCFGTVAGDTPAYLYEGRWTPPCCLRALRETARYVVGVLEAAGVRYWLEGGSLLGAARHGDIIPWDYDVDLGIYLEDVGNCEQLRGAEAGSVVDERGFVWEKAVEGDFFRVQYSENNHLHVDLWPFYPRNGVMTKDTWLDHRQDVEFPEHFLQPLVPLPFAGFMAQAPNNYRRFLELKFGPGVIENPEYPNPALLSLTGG

FKTN (fukutin) = target: T3, FKTN (fukutin) (Mus musculus, UniProt Q8R507); assay: as above; details: labelled compound; acceptor rabbit alpha-dystroglycan fragments; 2 mM MnCl2, pH 6.5, 30 °C, 16 h
T3 construct: full ORF from mouse brown adipose tissue cDNA, C-terminal SFB tag (S-tag, two FLAG, SBP), HEK293 lysate, streptavidin beads
T3 sequence (Q8R507 1-461): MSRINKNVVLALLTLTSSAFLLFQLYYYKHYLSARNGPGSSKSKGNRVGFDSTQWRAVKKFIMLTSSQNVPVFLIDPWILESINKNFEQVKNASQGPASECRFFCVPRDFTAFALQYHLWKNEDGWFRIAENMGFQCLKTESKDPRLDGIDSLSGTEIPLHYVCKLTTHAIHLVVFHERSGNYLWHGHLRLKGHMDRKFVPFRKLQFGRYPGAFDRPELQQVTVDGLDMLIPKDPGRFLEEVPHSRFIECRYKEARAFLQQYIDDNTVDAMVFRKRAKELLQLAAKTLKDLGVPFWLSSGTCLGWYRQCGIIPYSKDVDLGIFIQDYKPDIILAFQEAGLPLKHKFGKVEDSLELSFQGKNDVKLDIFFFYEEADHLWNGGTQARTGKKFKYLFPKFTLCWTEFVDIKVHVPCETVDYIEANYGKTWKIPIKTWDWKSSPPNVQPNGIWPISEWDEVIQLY

`Nc1ccn([C@@H]2O[C@H](COP(=O)(O)OP(=O)(O)OP(=O)(O)O)[C@@H](O)[C@H]2O)c(=O)n1` [CTP] was tested, and the “HPLC (strong anion exchange) of CDP-ribitol formed” value (ISPD (mouse Ispd); D-ribitol-5-P as co-substrate, 2 mM MgCl2, pH 7.8, 37 °C) was “Activity of ISPD on CTP and D-ribitol-5-P”.

In the case of `Nc1ccn([C@@H]2O[C@H](COP(=O)(O)OP(=O)(O)OC[C@@H](O)[C@@H](O)[C@@H](O)CO)[C@@H](O)[C@H]2O)c(=O)n1` [CDP-ribitol], the “transfer of radiolabel to alpha-dystroglycan (scintillation counting); SDS-PAGE p” value [1] was “both FKTN and FKRP were able to transfer ribitol phosphate from CDP-ribitol onto α-dystroglycan” and the “transfer of radiolabel to alpha-dystroglycan (scintillation counting); SDS-PAGE p” value (FKTN (fukutin)) was “both FKTN and FKRP were able to transfer ribitol phosphate from CDP-ribitol onto α-dystroglycan”.

In the case of `O=P(O)(O)OC[C@@H](O)[C@@H](O)[C@@H](O)CO` [D-ribitol-5-P], the “HPLC (strong anion exchange) of CDP-ribitol formed” value (ISPD (mouse Ispd); 2 mM MgCl2, 20 mM KCl, 2 mM DTT, pH 7.8, 37 °C) was “we clearly observed a CDP-ribitol pyrophosphorylase activity (Fig. 1b)”.
